For one compound, IC50 results are on record in ChEMBL document CHEMBL5725403, “Compounds and pharmaceutical compositions thereof for the treatment of inflammatory disorders” (2017).

This assay has as its target Autotaxin (Homo sapiens, UniProt Q13822). Kind of assay: Human ENPP2 (hENPP2) Assay: Compound IC50 values are determined in a hENPP2 (UniProtKB/SwissProt Sequence ref Q13822) biochemical assay using LPC as substrate. […] The enzyme is diluted in 50 mM Tris-HCl pH 8.5, 500 mM NaCl, 5 mM KCl, 10 mM CaCl2, 0.1% fatty acid free BSA in a total volume of 10 μL. the reaction is started by the addition of 10 μL of 150 μM LPC (palmitoyl 16:0) diluted in the same buffer as described above and the mixture is incubated at 37° C. for 30 min. The reaction is terminated and choline quantified by the addition of a 25 μL of a mixture containing 0.6 U/mL of choline oxidase, 0.6 U/mL of peroxydase, 1.8 mM TOOS, 1.2 mM amino-antipyrine, 20 mM EGTA (stop-developer solution) diluted in the buffer described above. […] is read on the Envision after an incubation of 30 min at room temperature (Excitation 555 nm, excitation light=70%).

Molecules are shown by their SMILES. pIC50: −log10 of the molar value.

By pIC50 is commonly meant the IC50 on a negative log10 scale, so that one unit is a factor of ten. `CCc1nc2ccc(C3CCN(S(C)(=O)=O)CC3)cn2c1N(C)c1nc(-c2ccc(F)cc2)c(Br)s1`: the negative logarithm of the IC50 (pIC50) was < 6.00.
